Reference: patent US20230277550A1, “Methods for Treating Respiratory Diseases Characterized by Mucus Hypersecretion” (The Board of Trustees of the Leland Stanford Junior …, priority 2020, published 2023)
One block for each compound: values may come before it.

Key:
[1] = system: Primary nasal epithelial cells from two CF donors (F508del homozygotes); assay: Ciliary beat frequency (CBF) in CF donor cultures, MK-0752 and Elexacaftor; format: cell-based, human; conditions: MK-0752 125 nM or triple modulator with Elexacaftor 100 nM; p < 0.001
[2] = cited from earlier work
[3] = system: Primary human airway epithelial cells; assay: MCC formation with a variety of GSIs at high and low concentrations; format: cell-based; conditions: for epithelial structure: high concentrations; for epithelial structure / multiciliated cell formation: ALI+0 to +21d; for multiciliated cell formation: low concentration; for Notch signaling and differentiation towards MCCs: nanomolar range, human nasal epithelial cells
[4] = system: CFTR; assay: CFTR current in Ussing chambers, GSI with or without ETI; format: cell-based, human
Experimental: Cells grown at an air liquid interface were mounted on a holding slider and inserted on an Ussing chamber for electrophysiological short circuit current (Isc) measurements. Solutions in the serosal and mucosal bath were prepared so that a chloride gradient was established between both sides. After stable baseline current recordings were obtained, agonists were added in the following order: amiloride (10 µM) to block sodium channel activity, forskolin (10 µM) to stimulate CFTR, Ivacaftor (10 µM) to potentiate CFTR activity, and CFTRinh-172 (20 µM) to block CFTR current. For each agonist signals were monitored until a plateau in current was noted before adding the next agonist. The delta-Isc in response to CFTRinh-172 was used as our main read out for CFTR-mediated chloride transport.
We directly measured CFTR activity in cultures from CF patients treated with GSI with or without well-established effective in vitro doses of Trikafta (Elexcaftor/Tezacaftor/Ivacaftor or “ETI”). Veit, G., et al., JCI (2020) 10.1172/jci.insight.139983. Measurements were performed in Ussing chambers. […] In some individual experiments, there appeared to be a synergistic effect in the combination treatment: GSI alone has no effect but the combination treatment produced a greater response than ETI alone. This effect was not consistently seen, but raised the possibility that synergy might be observed with lower ETI doses.
To examine this further, we tested MK04752 in combination with varying doses of ETI (FIG. 28).

[5] = system: Primary human airway epithelial cells; assay: GSI treatment from the apical or basal surface; format: cell-based; conditions: ALI+0 to +21d, apical or basal application
Experimental: Primary human airway epithelial cells were treated with DAPT and LY45139 during differentiation only (ALI+0 to +21d) from either the apical or basal surface, then labeled at ALI+21d with anti-acetylated α-Tubulin (green) and ECAD (red) antibodies. […] Apical treatment eliminates the air-liquid interface, which results in the poor epithelial structure and multiciliated cell differentiation in the untreated cultures, which is partially rescued by GSI treatment.

[6] = system: primary human nasal epithelial cells (HNECs); assay: Semagacestat dose response on multiciliated cell (MCC) formation in HNEC ALI cultures; format: cell-based; conditions: 1 µM DAPT; p <0.01 by ANOVA with Dunnett's test
Experimental: Air-Liquid Interface (ALI) cultures were prepared as described in Vladar EK, Nayak JV, Milla CE, Axelrod JD. Airway epithelial homeostasis and planar cell polarity signaling depend on multiciliated cell differentiation. JCI Insight. 2016;1(13);e88027. Human nasal epithelial cells (HNECs) were generated from human sinonasal epithelial brushings or from tissue obtained from patients undergoing endoscopic sinus surgery at Stanford Hospital and cultured as described in Vladar et al.
Cultures were treated with varying doses of semagacestat. DAPT (Abcam) was used ([…]) as a positive control for GSI activity. Cultures were labeled at ALI+21d with anti-acetylated α-tubulin (green) and ECAD (red) antibodies to mark cilia and epithelial junctions.
The ratio was defined as MCC number/total luminal cells. Counting was done on one representative image from 5 culture replicates from a single donor.

[7] = system: Mature (ALI+30d) primary human airway epithelial cells; assay: GSI treatment of mature (ALI+30d) cultures; format: cell-based; conditions: mature cultures treated one (ALI+30 to +37d) or two weeks (ALI+30 to +44d)
Experimental: Mature (ALI+30d) primary human airway epithelial cells were treated with DAPT and semagacestat for one (ALI+30 to +37d) or two weeks (ALI+30 to +44d), then labeled with anti-acetylated α-Tubulin (green) and ECAD (red) antibodies.

[8] = system: HNEC cultures from a CF patient; assay: IL-13 induced chronic inflammation model in ALI HNEC cultures; format: cell-based, human; conditions: DAPT 1 um, semagacestat 125 nm, days 14-21
Experimental: Administration of IL-13 to ALI cultures induces goblet cell hyperplasia and is a useful model of chronic inflammation. ALI HNEC cultures were prepared as described in Vladar et al. ALI cultures were treated with and without administration of Il-13 on days 7-14. DAPT (1 um), semagacestat (125 nm) or vehicle control were administered on days 14-21. PFA-fixed cultures were stained for Muc5AC (red; mucin producing secretory cells), Acetylated tubulin (green; MCCs) and E-Cadherin (blue to reveal cell boundaries).
HNEC cultures from a CF patient were treated with IL-13 from ALI+7 to 14 to induce inflammation. […] IL-13 treatment increases the percentage of mucin positive secretory cells and decreases the percentage of MCCs.

[9] = system: primary human epithelial cells; assay: Ciliary beat frequency and cilium length with DAPT; format: cell-based; conditions: cells differentiated in the presence of DAPT vs untreated
[10] = system: healthy and CF primary human airway epithelial cultures; assay: SEM of cilia in healthy and CF cultures; format: cell-based; conditions: healthy and CF cultures under DAPT vs untreated healthy cultures
[11] = system: Mature (ALI+30d) primary cystic fibrosis human airway epithelial cells; assay: DAPT treatment of mature cystic fibrosis cultures; format: cell-based; conditions: mature CF cultures, one week (ALI+30 to +37d)
Experimental: Mature (ALI+30d) primary cystic fibrosis human airway epithelial cells were treated with DAPT for one week (ALI+30 to +37d), then labeled with anti-acetylated α-Tubulin (green) and ECAD (red) antibodies.

[12] = system: Primary human airway epithelial cells; assay: MCC formation by timing of GSI treatment (proliferation, differentiation, continuous); format: cell-based
Experimental: Primary human airway epithelial cells were treated with DAPT and LY45139: i) during proliferation only (ALI-5 to -1d), ii) during differentiation only (ALI+0 to +21d) or iii) continuously during the entire culture duration, followed by labeling at ALI+21d with anti-acetylated α-Tubulin (green) and ECAD (red) antibodies.

epithelial structure [3]: disrupted epithelial structure
SMILES: O=C(O)CC[C@H]1CC[C@@](c2cc(F)ccc2F)(S(=O)(=O)c2ccc(Cl)cc2)CC1 [MK-0752]
ciliary beat frequency (CBF) vs control [1]: significant effect in increasing the CBF
most common drug-related toxicities ([2]; 450 to 4,200 mg, three schedules): diarrhea, nausea, vomiting, and fatigue
tolerability ([2]; weekly dosing): generally well-tolerated
multiciliated cell formation [3]: induced multiciliated cell formation
Notch signaling and differentiation towards MCCs [3]: effective in blocking Notch signaling, driving differentiation towards MCCs
CFTR current with suboptimal doses of ETI ([4]; MK04752 with varying (reduced Elexacaftor) doses of ETI): suboptimal doses of ETI appear to be potentiated by MK04752
CFTR current induced by ETI ([4]; cultures from CF patients, GSI plus ETI): Neither LY45139 (FIG. 26) nor MK04752 (FIG. 27) impaired the CFTR current

epithelial structure [3]: disrupted epithelial structure
SMILES: CCC[C@H](N[C@H]1CCc2cc(F)cc(F)c2C1)C(=O)Nc1cn(C(C)(C)CNCC(C)(C)C)cn1 [nirogacestat, (S)-2-((S)-5,7-difluoro-1,2,3,4-tetrahydronaphthalen-3-ylamino)-N-(1-(2-m-ethyl-1-(neopentylamino)propan-2-yl)-1H-imidazol-4-yl)pentanamide]
multiciliated cell formation [3]: induced multiciliated cell formation
Notch signaling and differentiation towards MCCs [3]: effective in blocking Notch signaling, driving differentiation towards MCCs

epithelial structure [3]: disrupted epithelial structure
SMILES: CC(C)(C(=O)NCC(F)(F)C(F)(F)F)C(=O)N[C@@H]1C(=O)Nc2ccccc2-c2ccccc21 [RO-4929097]
multiciliated cell formation [3]: induced multiciliated cell formation
Notch signaling and differentiation towards MCCs [3]: effective in blocking Notch signaling, driving differentiation towards MCCs

SMILES: C[C@H](NC(=O)Cc1cc(F)cc(F)c1)C(=O)NC(C(=O)OC(C)(C)C)c1ccccc1 (some centres unmarked) [DAPT]
ciliated cell formation [5]: induces ciliated cell formation via both apical and basal application
ratio MCC number/total luminal cells [6]: significant increases
formation of additional multiciliated cells [7]: induces the formation of additional multiciliated cells
percentage of MCCs ([8]; after IL-13 (ALI+7 to 14)): increasing the percentage of MCCs
percentage of mucin positive secretory cells ([8]; after IL-13 (ALI+7 to 14)): decreasing the percentage of mucin positive secretory cells
percentage of MCCs ([8]; controls without IL-13): increase the percentage off MCCs
ciliary beat frequency [9]: modest, but significant increase
cilium length [9]: no difference
structure of multiciliated cells by SEM [10]: indistinguishable from those in untreated healthy cultures
formation of additional multiciliated cells [11]: induces the formation of additional multiciliated cells in mature cystic fibrosis cultures
MCC cell numbers ([12]; treatment during differentiation (differentiation only ALI+0 to +21d, and continuous)): increased MCC cell numbers
effect on differentiation ([12]; treatment during proliferation only (ALI-5 to -1d)): had no effect on differentiation
